Test results published in PubChem BioAssay AID1259407 (Chemical Carcinogenesis Research Information System (CCRIS), 2018).
Calls of active or inactive are those of the source. No rule for the calls is given here.

Test system: CCRIS mutagenicity, Ames/micronucleus/aberration tests
Assay: CCRIS mutagenicity studies
[1] = Test System: AMES SALMONELLA TYPHIMURIUM, Strain/Indicator: TA98, Metabolic Activation: NONE, Method: STANDARD PLATE
[2] = Test System: AMES SALMONELLA TYPHIMURIUM, Strain/Indicator: TA98, Metabolic Activation: RAT, LIVER, S-9, AROCLOR 1254, Method: STANDARD PLATE
[3] = Test System: AMES SALMONELLA TYPHIMURIUM, Strain/Indicator: TA100, Metabolic Activation: NONE, Method: STANDARD PLATE
[4] = Test System: AMES SALMONELLA TYPHIMURIUM, Strain/Indicator: TA100, Metabolic Activation: RAT, LIVER, S-9, AROCLOR 1254, Method: STANDARD PLATE
[5] = Test System: AMES SALMONELLA TYPHIMURIUM, Strain/Indicator: TA97, Metabolic Activation: NONE, Method: STANDARD PLATE
[6] = Test System: AMES SALMONELLA TYPHIMURIUM, Strain/Indicator: TA102, Metabolic Activation: NONE, Method: STANDARD PLATE

With CCOC(=O)C1OC1c1ccccc1 (stereo not drawn) the mutagenic call (Test System: AMES SALMONELLA TYPHIMURIUM, Strain/Indicator: TA98, Metabolic Activation: HAMSTER, LIVER, S-9, AROCLOR 1254 (10%), Method: PREINCUBATION) was “inactive; negative”, the mutagenic call (Test System: AMES SALMONELLA TYPHIMURIUM, Strain/Indicator: TA98, Metabolic Activation: NONE, Method: PREINCUBATION) was “inactive; negative” and the mutagenic call [1] was “inactive; negative”. The mutagenic call (Test System: AMES SALMONELLA TYPHIMURIUM, Strain/Indicator: TA98, Metabolic Activation: RAT, LIVER, S-9, AROCLOR 1254 (10%), Method: PREINCUBATION) was “inactive; negative”, the mutagenic call [2] was “inactive; negative” and the mutagenic call (Test System: AMES SALMONELLA TYPHIMURIUM, Strain/Indicator: TA100, Metabolic Activation: HAMSTER, LIVER, S-9, AROCLOR 1254 (10%), Method: PREINCUBATION) was “inactive; negative”. The mutagenic call (Test System: AMES SALMONELLA TYPHIMURIUM, Strain/Indicator: TA100, Metabolic Activation: NONE, Method: PREINCUBATION) was “inactive; negative”, the mutagenic call [3] was “inactive; negative” and the mutagenic call (Test System: AMES SALMONELLA TYPHIMURIUM, Strain/Indicator: TA100, Metabolic Activation: RAT, LIVER, S-9, AROCLOR 1254 (10%), Method: PREINCUBATION) was “inactive; negative”. For the same compound, the mutagenic call [4] was “active; positive”, the mutagenic call (Test System: AMES SALMONELLA TYPHIMURIUM, Strain/Indicator: TA1535, Metabolic Activation: HAMSTER, LIVER, S-9, AROCLOR 1254 (10%), Method: PREINCUBATION) was “inactive; negative” and the mutagenic call (Test System: AMES SALMONELLA TYPHIMURIUM, Strain/Indicator: TA1535, Metabolic Activation: NONE, Method: PREINCUBATION) was “inactive; negative”. The mutagenic call (Test System: AMES SALMONELLA TYPHIMURIUM, Strain/Indicator: TA1535, Metabolic Activation: NONE, Method: STANDARD PLATE) was “inactive; negative”, the mutagenic call (Test System: AMES SALMONELLA TYPHIMURIUM, Strain/Indicator: TA1535, Metabolic Activation: RAT, LIVER, S-9, AROCLOR 1254 (10%), Method: PREINCUBATION) was “inactive; negative” and the mutagenic call (Test System: AMES SALMONELLA TYPHIMURIUM, Strain/Indicator: TA1535, Metabolic Activation: RAT, LIVER, S-9, AROCLOR 1254, Method: STANDARD PLATE) was “inactive; negative”. The mutagenic call (Test System: AMES SALMONELLA TYPHIMURIUM, Strain/Indicator: TA1537, Metabolic Activation: HAMSTER, LIVER, S-9, AROCLOR 1254 (10%), Method: PREINCUBATION) was “inactive; negative”, the mutagenic call (Test System: AMES SALMONELLA TYPHIMURIUM, Strain/Indicator: TA1537, Metabolic Activation: NONE, Method: PREINCUBATION) was “inactive; negative” and the mutagenic call (Test System: AMES SALMONELLA TYPHIMURIUM, Strain/Indicator: TA1537, Metabolic Activation: NONE, Method: STANDARD PLATE) was “inactive; negative”. For the same compound, the mutagenic call (Test System: AMES SALMONELLA TYPHIMURIUM, Strain/Indicator: TA1537, Metabolic Activation: RAT, LIVER, S-9, AROCLOR 1254 (10%), Method: PREINCUBATION) was “inactive; negative”, the mutagenic call (Test System: AMES SALMONELLA TYPHIMURIUM, Strain/Indicator: TA1537, Metabolic Activation: RAT, LIVER, S-9, AROCLOR 1254, Method: STANDARD PLATE) was “inactive; negative” and the mutagenic call (Test System: AMES SALMONELLA TYPHIMURIUM, Strain/Indicator: TA1538, Metabolic Activation: NONE, Method: STANDARD PLATE) was “inactive; negative”. The mutagenic call (Test System: AMES SALMONELLA TYPHIMURIUM, Strain/Indicator: TA1538, Metabolic Activation: RAT, LIVER, S-9, AROCLOR 1254, Method: STANDARD PLATE) was “inactive; negative”, the mutagenic call (Test System: CHINESE HAMSTER OVARY, Strain/Indicator: CHO-K1-BH4/6-THIOGUANINE, Metabolic Activation: NONE) was “active; positive” and the mutagenic call (Test System: CHINESE HAMSTER OVARY, Strain/Indicator: CHO-K1-BH4/6-THIOGUANINE, Metabolic Activation: RAT, LIVER, S-9, AROCLOR 1254) was “active; positive”.
Cc1nc2c(c3[nH]c4ccccc4c13)C(=O)C=C(N1CC1)C2=O was tested, and the mutagenic call [5] was “active; positive”, the mutagenic call (Test System: AMES SALMONELLA TYPHIMURIUM, Strain/Indicator: TA97, Metabolic Activation: RAT, LIVER, S-9, AROCLOR 1254, Method: STANDARD PLATE) was “active; positive” and the mutagenic call [1] was “active; positive”. The mutagenic call [2] was “active; positive”, the mutagenic call [3] was “active; positive” and the mutagenic call [4] was “active; positive”. The mutagenic call [6] was “inactive; negative” and the mutagenic call (Test System: AMES SALMONELLA TYPHIMURIUM, Strain/Indicator: TA102, Metabolic Activation: RAT, LIVER, S-9, AROCLOR 1254, Method: STANDARD PLATE) was “active; positive”.
In the case of Brc1cc(Br)c(-c2cc(Br)c(Br)cc2Br)cc1Br, the mutagenic call (Test System: CHINESE HAMSTER V-79, Strain/Indicator: V-79 (HGPRT)/6-THIOGUANINE, Metabolic Activation: NONE) is reported as “inactive; negative”.
CC(O)CN(CCN(CC(C)O)CC(C)O)CC(C)O (stereo not drawn) was tested, and the mutagenic call [5] was “inactive; negative”, the mutagenic call (Test System: AMES SALMONELLA TYPHIMURIUM, Strain/Indicator: TA97, Metabolic Activation: S-9, Method: STANDARD PLATE) was “inactive; negative” and the mutagenic call [1] was “inactive; negative”. For the same compound, the mutagenic call (Test System: AMES SALMONELLA TYPHIMURIUM, Strain/Indicator: TA98, Metabolic Activation: S-9, Method: STANDARD PLATE) was “inactive; negative”, the mutagenic call [3] was “inactive; negative” and the mutagenic call (Test System: AMES SALMONELLA TYPHIMURIUM, Strain/Indicator: TA100, Metabolic Activation: S-9, Method: STANDARD PLATE) was “inactive; negative”. The mutagenic call [6] was “inactive; negative”, the mutagenic call (Test System: AMES SALMONELLA TYPHIMURIUM, Strain/Indicator: TA102, Metabolic Activation: S-9, Method: STANDARD PLATE) was “inactive; negative” and the mutagenic call (Test System: E.COLI, Strain/Indicator: WP2 (PKM101), Metabolic Activation: NONE, Method: STANDARD PLATE) was “inactive; negative”. For the same compound, the mutagenic call (Test System: E.COLI, Strain/Indicator: WP2 (PKM101), Metabolic Activation: S-9, Method: STANDARD PLATE) was “inactive; negative”.
